The values that follow come from ChEMBL document CHEMBL6153061, “Sialyl Lewisx Glycomimetics as E- and P-Selectin Antagonists Targeting Hyperinflammation” (ACS Med Chem Lett, 2025).

The test system of experiment [1] is Mus musculus. In words: Immunosuppressive effect in thioglycolate-induced hyper-inflammatory C57BL/6 wild type mouse model assessed as reduction in neutrophil level in […] peritoneal cavity at 2.5 micromol/kg, iv pre-administered for 10 min followed by thioglycolate administration for 10 min and further incubated with compound for 1 hr 40 min by flow cytometry based in vivo cell recruitment assay. It is filed as functional, organism-based. The note with it: dose 2.5 µmol/kg, time 2.0 hrs.

For experiment [2], the system named is Mus musculus. In words: Immunosuppressive effect in thioglycolate-induced hyper-inflammatory C57BL/6 wild type mouse model assessed as effect on CD11b+ level in […] peritoneal cavity at 2.5 micromol/kg, iv pre-administered 10 min followed by thioglycolate administration measured after 10 min by flow cytometry based in vivo cell recruitment assay. As to conditions: dose 2.5 µmol/kg, time 20.0 min. It is filed as functional, organism-based. For orientation: A flow cytometer gives signals particle by particle.

Experiment [3] has as its system Mus musculus. In words: Immunosuppressive activity in thioglycolate induced hyper-inflammatory C57BL/6 wild type mouse model assessed as effect on neutrophil levels at 2 micromol/kg, iv pre-administered 10 min followed by thioglycolate administration measured after 10 min by flow cytometry analysis. It is filed as functional, organism-based. The note with it: dose 2.0 µmol/kg, time 20.0 min.

Experiment [4] has as its system Mus musculus. In words: Immunosuppressive effect in thioglycolate-induced hyper-inflammatory C57BL/6 wild type mouse model assessed as effect on PSGL-1+ level in […] peritoneal cavity at 2.5 micromol/kg,iv pre-administered 10 min followed by thioglycolate administration measured after 10 min by flow cytometry based in vivo cell recruitment assay. The note with it: dose 2.5 µmol/kg, time 20.0 min. The format is functional, organism-based.

Experiment [5] has as its system Mus musculus. In words: Immunosuppressive effect in thioglycolate-induced hyper-inflammatory C57BL/6 wild type mouse model assessed as effect on macrophage/monocytes level in […] peritoneal cavity at 2.5 micromol/kg, iv pre-administered 10 min followed by thioglycolate administration measured after 10 min by flow cytometry based in vivo cell recruitment assay. The format is functional, organism-based. As to conditions: dose 2.5 µmol/kg, time 20.0 min.

In experiment [6] the test system is Mus musculus. In words: Immunosuppressive effect in thioglycolate induced hyper-inflammatory C57BL/6 wild type mouse model assessed as reduction in CD11b+ level in […] peritoneal cavity at 2.5 micromol/kg,iv pre-administered for 10 min followed by thioglycolate administration for 10 min and further incubated with compound for 1 hr 40 min by flow cytometry in vivo cell recruitment assay. The format is functional, organism-based. As to conditions: dose 2.5 µmol/kg, time 2.0 hrs.

Experiment [7] has as its system Mus musculus. In words: Immunosuppressive activity in thioglycolate induced hyper-inflammation in C57BL/6 wild type mouse model assessed as reduction in macrophages/monocytes levels at 2 micromol/kg, iv pre-administered for 10 min followed by thioglycolate administration for 10 min and further incubated with compound for 1 hr 40 min by flow cytometry in vivo cell recruitment assay. It is filed as functional, organism-based. As to conditions: dose 2.0 µmol/kg, time 2.0 hrs.

The test system of experiment [8] is Mus musculus. In words: Immunosuppressive effect in thioglycolate induced hyper-inflammatory C57BL/6 wild type mouse model assessed as reduction in PSGL-1 positive cell level in […] peritoneal cavity at 2.5 micromol/kg, iv pre-administered for 10 min followed by thioglycolate administration for 10 min and further incubated with compound for 1 hr 40 min by flow cytometry based in vivo cell recruitment assay. The format is functional, organism-based. As to conditions: dose 2.5 µmol/kg, time 2.0 hrs.

Experiment [9] deals with Mus musculus. In words: Immunosuppressive effect in thioglycolate-induced hyper-inflammatory C57BL/6 wild type mouse model assessed as reduction in neutrophil level in skin of peritoneal cavity at 2.5 micromol/kg, iv administered after 24 hrs of thioglycolate injection in peritoneal cavity followed by after 2 hrs treated at 2.5 micromol/kg, ip and followed by after 6 hrs treated at 2.5 micromol/kg, ip and followed by after 15 hrs treated at 2.5 micromol/kg, ip and measured after 3 hrs by flow cytometry based in vivo cell recruitment assay. The format is functional, organism-based. As to conditions: time 26.0 hrs.

The test system of experiment [10] is Mus musculus. In words: Immunosuppressive effect in thioglycolate-induced hyper-inflammatory C57BL/6 wild type mouse model assessed as reduction in PSGL-1+ level in […] peritoneal cavity at 2.5 micromol/kg, iv administered after 24 hrs of thioglycolate injection in peritoneal cavity followed by after 2 hrs treated at 2.5 micromol/kg, ip and followed by after 6 hrs treated at 2.5 micromol/kg, ip and followed by after 15 hrs treated at 2.5 micromol/kg, ip and measured after 3 hrs by flow cytometry based in vivo cell recruitment assay. The note with it: time 26.0 hrs. It is filed as functional, organism-based.

The test system of experiment [11] is Mus musculus. In words: Immunosuppressive effect in thioglycolate-induced hyper-inflammatory C57BL/6 wild type mouse model assessed as reduction in CD11b+ level in […] peritoneal cavity at 2.5 micromol/kg, iv administered after 24 hrs of thioglycolate injection in peritoneal cavity followed by after 2 hrs treated at 2.5 micromol/kg, ip and followed by after 6 hrs treated at 2.5 micromol/kg, ip and followed by after 15 hrs treated at 2.5 micromol/kg, ip and measured after 3 hrs by flow cytometry based in vivo cell recruitment assay. It is filed as functional, organism-based. As to conditions: time 26.0 hrs.

The subject of experiment [12] is Mus musculus. In words: Immunosuppressive effect in thioglycolate-induced hyper-inflammatory C57BL/6 wild type mouse model assessed as reduction in macrophage/monocyte level in […] peritoneal cavity at 2.5 micromol/kg, iv administered after 24 hrs of thioglycolate injection in peritoneal cavity followed by after 2 hrs treated at 2.5 micromol/kg, ip and followed by after 6 hrs treated at 2.5 micromol/kg, ip and followed by after 15 hrs treated at 2.5 micromol/kg, ip and measured after 3 hrs by flow cytometry based in vivo cell recruitment assay. It is filed as functional, organism-based. The note with it: time 26.0 hrs.

Experiment [13] has as its target T1, P-selectin (Homo sapiens, UniProt P16109).
T1 sequence (P16109 whole entry): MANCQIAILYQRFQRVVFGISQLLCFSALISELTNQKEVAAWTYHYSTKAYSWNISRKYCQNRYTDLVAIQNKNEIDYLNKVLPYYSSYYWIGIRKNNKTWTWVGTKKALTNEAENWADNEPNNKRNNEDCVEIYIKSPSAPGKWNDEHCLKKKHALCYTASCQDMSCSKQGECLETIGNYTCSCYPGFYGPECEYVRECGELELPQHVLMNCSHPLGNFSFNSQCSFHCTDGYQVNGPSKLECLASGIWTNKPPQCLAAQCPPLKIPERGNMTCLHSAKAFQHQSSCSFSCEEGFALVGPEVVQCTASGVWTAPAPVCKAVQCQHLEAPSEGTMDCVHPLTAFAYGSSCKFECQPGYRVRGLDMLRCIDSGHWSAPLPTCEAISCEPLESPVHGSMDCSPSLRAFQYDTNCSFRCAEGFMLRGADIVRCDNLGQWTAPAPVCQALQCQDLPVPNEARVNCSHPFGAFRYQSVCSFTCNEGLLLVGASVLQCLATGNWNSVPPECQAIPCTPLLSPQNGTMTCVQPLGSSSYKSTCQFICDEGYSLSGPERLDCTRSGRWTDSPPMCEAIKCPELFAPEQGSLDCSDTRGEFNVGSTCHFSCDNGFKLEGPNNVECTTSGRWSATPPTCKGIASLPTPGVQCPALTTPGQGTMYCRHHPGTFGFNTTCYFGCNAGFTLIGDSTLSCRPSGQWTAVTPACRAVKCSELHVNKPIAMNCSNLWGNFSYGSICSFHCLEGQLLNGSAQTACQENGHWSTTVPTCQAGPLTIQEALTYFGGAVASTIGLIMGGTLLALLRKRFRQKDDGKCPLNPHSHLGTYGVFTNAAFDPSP
In words: Binding affinity to recombinant human P-selectin assessed as dissociation constant by surface plasmon resonance (SPR) analysis. In general terms: SPR reads the build-up and loss of mass on a sensor chip optically.

For experiment [14], the target named is T2, E-selectin (Homo sapiens, UniProt P16581).
T2 sequence (P16581 whole entry): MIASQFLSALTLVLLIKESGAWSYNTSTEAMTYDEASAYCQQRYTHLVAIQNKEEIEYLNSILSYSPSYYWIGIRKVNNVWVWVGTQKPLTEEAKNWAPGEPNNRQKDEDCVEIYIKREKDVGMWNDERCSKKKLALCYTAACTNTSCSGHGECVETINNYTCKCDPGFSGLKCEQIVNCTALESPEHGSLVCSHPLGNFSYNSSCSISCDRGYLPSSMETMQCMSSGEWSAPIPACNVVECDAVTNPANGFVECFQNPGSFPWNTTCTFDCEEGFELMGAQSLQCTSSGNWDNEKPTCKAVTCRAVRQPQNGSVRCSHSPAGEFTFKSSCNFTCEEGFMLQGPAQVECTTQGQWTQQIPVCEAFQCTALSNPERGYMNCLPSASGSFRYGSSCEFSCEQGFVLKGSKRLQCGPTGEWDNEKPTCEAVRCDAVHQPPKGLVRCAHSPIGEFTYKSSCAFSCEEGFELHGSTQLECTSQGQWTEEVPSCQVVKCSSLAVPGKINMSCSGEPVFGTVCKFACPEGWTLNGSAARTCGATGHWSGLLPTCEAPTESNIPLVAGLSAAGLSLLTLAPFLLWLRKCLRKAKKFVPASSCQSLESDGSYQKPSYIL
In words: Binding affinity to recombinant human E-selectin assessed as dissociation constant by surface plasmon resonance (SPR) analysis.

Experiment [15] concerns Mus musculus. In words: Immunosuppressive effect in thioglycolate-induced hyper-inflammatory C57BL/6 wild type mouse model assessed as effect on neutrophil level in […] peritoneal cavity at 2.5 micromol/kg, iv measured after 2 hrs by flow cytometry based in vivo cell recruitment assay. As to conditions: dose 2.5 µmol/kg. The format is functional, organism-based.

Calls of active or inactive are those of the source. The calls are words filed in the database; no cut-off is given here.

Regarding `CC(C)OC(=O)[C@H](O[C@@H]1O[C@@H](C)[C@@H](O)[C@@H](O)[C@@H]1O)[C@@H](O[C@@H]1O[C@H](COC(=O)c2ccccc2)[C@@]2(O)CC[C@@H](c3nnn[nH]3)O[C@@H]2[C@H]1OC(=O)c1ccccc1)C(=O)OC(C)C`, the result in experiment [1], in experiment [6], in experiment [7], in [8], in experiment [9] and in experiment [10] was Active. The result in [11] and in [12] was Active. Also, the outcome in experiment [2], in experiment [3], in [4] and in [5] was inactive.

One may read the Kd as the equilibrium constant for the complex coming apart. For the molecule `CC(C)OC(=O)[C@H](O[C@@H]1O[C@@H](C)[C@@H](O)[C@@H](O)[C@@H]1O)[C@@H](O[C@@H]1O[C@H](CO)[C@H](O)[C@H](O[C@H](Cc2ccccc2)C(=O)O)[C@H]1OC(=O)c1ccccc1)C(=O)OC(C)C`, the dissociation constant Kd in experiment [13] and in [14] was 1000 nM in each case.

On to `CC(C)OC(=O)[C@H](O[C@@H]1O[C@@H](C)[C@@H](O)[C@@H](O)[C@@H]1O)[C@@H](O[C@@H]1O[C@H](CO)[C@@]2(O)CC[C@@H](c3nnn[nH]3)O[C@@H]2[C@H]1OC(=O)c1ccccc1)C(=O)OC(C)C`, for which the result in [1], in [6], in [7], in [9], in experiment [10] and in experiment [11] was Active. For the same molecule, the outcome in experiment [12] was Active. For the same molecule, the result in experiment [2], in [3], in [4] and in experiment [5] was inactive.

`CC(C)OC(=O)[C@H](O[C@@H]1O[C@@H](C)[C@@H](O)[C@@H](O)[C@@H]1O)[C@@H](O[C@@H]1O[C@H](COC(=O)c2ccccc2)[C@@]2(O)CC[C@@H](C(=O)O)O[C@H]2[C@H]1OC(=O)c1ccccc1)C(=O)OC(C)C`: the result in experiment [1], in experiment [6], in experiment [7], in experiment [9], in experiment [10] and in [11] was Active. Further, the outcome in [12] was Active. The result in [2], in experiment [3], in [4] and in experiment [5] was inactive. Moreover, in experiment [15], the Activity result is “Active; Lowering Neutrophil Levels”.

`CC(C)OC(=O)[C@H](O[C@@H]1O[C@@H](C)[C@@H](O)[C@@H](O)[C@@H]1O)[C@@H](O[C@@H]1O[C@H](COC(=O)c2ccccc2)[C@@]2(O)CC[C@H](C(=O)O)O[C@H]2[C@H]1OC(=O)c1ccccc1)C(=O)OC(C)C`: the result in [15] was inactive.

Consider `CC(=O)N[C@@H]1[C@@H](O[C@@H]2O[C@@H](C)[C@@H](O)[C@@H](O)[C@@H]2O)[C@H](O[C@@H]2O[C@H](CO)[C@H](O)[C@H](O[C@]3(C(=O)O)C[C@H](O)[C@@H](NC(C)=O)[C@H]([C@H](O)[C@H](O)CO)O3)[C@H]2O)[C@@H](CO)O[C@H]1O`, for which, in [15], the result was inactive.
